Data taken from PubChem BioAssay (NCI).
Several values for one entry are separate records, joined by “and”; a condition that tells them apart may be missing. Equal values may be shown once.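 Step 1: Grow cells in 96-well plates. Step 2: Expose to compound for 48 hours at 5 concentrations. Step 3: Interpolate endpoints linearly; if unreached, use highest concentration. GI50 marks 50% less growth. Definition used: TGI = concentration required for complete inhibition of growth.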

System: MDA-MB-468 breast
Assay: growth of human tumour cells (NCI), 48 h

| Compound | GI50 | TGI |
| --- | --- | --- |
| O=C(Nc1ccc(Oc2cccc(Cl)c2)c(Cl)c1)c1cccnc1 | 565 nM | 4150 nM |
| H-KIFKKFKTIIKKVWRIFGRF-NH2 | 1320 nM | 5940 nM |
| Cc1cccc(Cc2cnc(NC(=O)/C=C/c3ccco3)s2)c1 | 40.7 nM | 13200 nM |
| Cn1ccnc1C(=O)/C=C/c1ccc(CC(=O)Nc2cc(F)c(F)c(F)c2)cc1 | 636 nM | 1960 nM |
| Cc1cncc2cccc(S(=O)(=O)N3CCCNC[C@@H]3C)c12 | 19000 nM | > 91100 nM |
| COC(=O)C1=C(C)NC(C)=C(C(=O)OC)C1c1ccccc1[N+](=O)[O-] | 25300 nM | > 100000 nM |
| COc1cc(C2CC(c3cc(Cl)c(C)cc3O)=NN2c2ccc(S(N)(=O)=O)cc2)cc(OC)c1OC (stereo not given) | 2640 nM | 9070 nM |
| COc1cc2cc(Oc3ccc(NC(=O)Nc4cc(C(F)(F)F)cc(C(F)(F)F)c4)cc3)c(C)nc2cc1OCCN1CCCCC1 | 1670 nM | 3320 nM |
| Nc1cc2ccncc2c2ccccc12 | 12300 nM | 36500 nM |
| CCN(CC)Cc1cc(Nc2c3ccc(Cl)cc3nc3c(C)cccc23)ccc1O | 1370 nM | 2830 nM |
| CCOC(=O)Nc1ccc2nc(Sc3ccc(Cl)cc3)sc2c1 | 719 nM | 3670 nM |
| O=C(N/N=C\c1cc(Br)cc(Br)c1O)N/N=C/c1cc(Br)cc(Br)c1O | 3130 nM | 8850 nM |
| COc1ccc(C(=O)C(CN(C)C)c2ccccc2)cc1 (stereo not given) | 1930 nM | 4960 nM |
| c1ccc(-c2nn(-c3ccccc3)[n+](-c3ccccc3-c3ccccc3)n2)cc1 | 189 nM | 923 nM |
| CO[C@H]1/C=C/C=C/C=C/C[C@H](OC(=O)[C@@H](C)NC(=O)C2CCCCC2)[C@H](C)[C@@H](O)/C(C)=C\CCC2=CC(=O)C=C(NC(=O)C1)C2=O | 142 nM | 740 nM |
| CCN(CC)CCn1nc2c3c(cccc3c1=O)-c1ccccc1-2 | 2220 nM | 8430 nM |
| Cn1cc(C2=C(c3cccc(Cl)c3)C(=O)NC2=O)c2ccccc21 | 4480 nM | 24600 nM |
| Cc1cc2nc3c4cc(Cl)ccc4n(CC(=O)NCCN(C)C)c3nc2cc1C | 11300 nM | 23800 nM |
| CCN(CC)c1ccc(/C=C2/NC(=O)NC2=O)cc1 | 981 nM | 7840 nM |
| NC(=S)c1cn(C2OC(CO)C(O)C2O)c2ncnc(N)c12 (stereo not given) | 58.9 nM | 252 nM |
| Nc1ccc(Sc2ccc3c4c2cccc4c(=O)n2c4ccccc4nc32)cc1 | 3190 nM | 20800 nM |

| Compound | GI50 | TGI |
| --- | --- | --- |
| Nc1ncn(C2OC(CO)C(O)C2O)c(=O)n1 (stereo not given) | 1210 nM and 925 nM | 6450 nM and 8060 nM |
| COc1ccc(C2C3=C(COC3=O)N(CCO)c3cc4c(cc32)CCC4)cc1OC (stereo not given) | 184 nM |  |
| Clc1ccc2c(NCCNc3nc(Cl)nc4ccccc34)ccnc2c1 | 583 nM | 2030 nM |
| CCCCOc1nc2ccccc2cc1C1CNC(=O)c2ccccc2N1 (stereo not given) | 2030 nM | 9560 nM |
| O=C(Nc1ccc(I)cc1F)c1cc(F)ccc1O | 898 nM | 5300 nM |
| CCN(Cc1cccc(C)c1)c1ccc(CO)c(Cl)c1 | 36.2 nM | 134 nM |
| Fc1ccc(-c2ncn(C3CCNCC3)c2-c2ccnc(Oc3ccc(Oc4ccccc4)cc3)n2)cc1 | 1940 nM | 5570 nM |
| CCc1cc(Nc2nccc(-c3c(-c4ccc(OC)c(C(=O)Nc5c(F)cccc5F)c4)nc4ccccn34)n2)c(OC)cc1N1CCC(N2CCN(S(C)(=O)=O)CC2)CC1 | > 82700 nM | > 100000 nM |
| COc1ccc(Nc2ccnc3cc(Cl)ccc23)cc1CN(CCCl)CCCl | 195 nM | 840 nM |
| Cn1cc(-c2nnc(N)nc2-c2c[nH]c3ccc(F)cc23)c2cc(Br)ccc21 | 1240 nM | 7750 nM |
| COC(=O)[C@@H](C)C[C@H](Cc1ccccc1)NC(=O)c1csc([C@@H](C[C@H](C(C)C)N(C)C(=O)[C@@H](NC(=O)CN(C)C)C2CC2)OC(C)=O)n1 | 6.58 nM |  |
| CCn1c(-c2nonc2N)nc2c(C#CC(C)(C)O)ncc(OCC3CCNCC3)c21 | 336 nM | > 25000 nM |
| O=C(c1nc2ccccc2[nH]1)C1C(c2cccc([N+](=O)[O-])c2)C2CC3CCCCC3N2[C@@]12C(=O)Nc1cc(Cl)ccc12 (stereo not given in full) | 1390 nM | 4000 nM |
| CC(=O)O[C@H]1Cc2c([nH]c3ccccc23)[C@@H](c2ccc(Cl)cc2)N1C(=O)CCNC(C)(C)C | 3180 nM | 7670 nM |
| CN1CCN(Cc2ccc(NC(=O)c3cncc(C#Cc4cncc5[nH]ncc45)c3)cc2C(F)(F)F)CC1 | 1080 nM | 4080 nM |
| Cc1ccc(/C=C2\CN(C(=O)CCN3CCC(=NO)CC3)C/C(=C\c3ccc(C)cc3)C2=O)cc1 | 1460 nM | 3460 nM |
| CCN1CCN(c2nc(NNC(=O)c3cccc(OC)c3)nc(N3CCN(C(c4ccccc4)c4ccccc4)CC3)n2)CC1 | 1910 nM | 4920 nM |
| Cn1cc(C2=C(c3cn(C)c4cc(Cl)ccc34)C(=O)NC2=O)c2ccccc21 | 74.4 nM | 5960 nM |
| O=C(CN1CCN(c2cc3c(cc2F)c(=O)c(C(=O)O)cn3C2CC2)CC1)Nc1ccc(C(=O)/C=C/c2ccccc2)cc1 | 2450 nM | 23200 nM |
| N#CCCCCCn1c2ccccc2c2c3c(c4c5ccccc5[nH]c4c21)C(=O)N(O)C3=O | 1480 nM | 5980 nM |
